Like-named read-outs stand apart in the source and are kept apart here.
Tested on: histone H3 hyperacetylation in HeLa cervical carcinoma cells
Experiment: Cellular histone H3 hyperacetylation assay
Type: cell-based
Conditions: Homo sapiens, 24 h treatment
Outline: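 HeLa cells treated with compound for 24 h, then fixed, permeabilized and immunostained for acetylated histone H3 (K1-20) with an Alexa Fluor 488 secondary. High-content imaging scored the percentage of cells with nuclear fluorescence; EC50 from concentration-effect curves by non-linear regression.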

[1] = read-out: EC50, induction of histone H3 hyperacetylation
[2] = read-out: −lg EC50, induction of histone H3 hyperacetylation

| Compound | EC50 [1] [µM] | EC50 [2] [µM] |
| --- | --- | --- |
| Nc1ccccc1NC(=O)c1nc2c(s1)CN(C(=O)Nc1ccc(-c3ccccc3)cc1)CC2 [Example 1, N^2-(2-aminophenyl)-N5-biphenyl-4-yl-6,7-dihydro[1,3]thiazolo[5,4-c]pyridine-2,5(4H)-dicarboxamide] | 0.15 to 15 | 0.251 to 15.8 |
| CN(C)c1ccc(NC(=O)N2CCc3nc(C(=O)Nc4ccccc4N)sc3C2)cc1 [Example 2, N^2-(2-aminophenyl)-N5-[4-(dimethylamino)phenyl]-6,7-dihydro[1,3]thiazolo[5,4-c]pyridine-2,5(4H)-dicarboxamide] | 0.15 to 15 | 0.251 to 15.8 |
| COc1ccc(NC(=O)N2CCc3nc(C(=O)Nc4ccccc4N)sc3C2)cc1 [Example 3, N^2-(2-aminophenyl)-N5-(4-methoxyphenyl)-6,7-dihydro[1,3]thiazolo[5,4-c]pyridine-2,5(4H)-dicarboxamide] | 0.15 to 15 | 0.251 to 15.8 |
| Nc1ccccc1NC(=O)c1nc2c(s1)CN(C(=O)Nc1cnc3ccccc3c1)CC2 [Example 12, N^2-(2-aminophenyl)-N5-quinolin-3-yl-6,7-dihydro[1,3]thiazolo[5,4-c]pyridine-2,5(4H)-dicarboxamide] | 0.15 to 15 | 0.251 to 15.8 |

From patent publication US8440830B2, “Tetrahydro-fused pyridines as histone deacetylase inhibitors” (4SC AG, priority 2007, dated 2013)
